US6894168B2, “Carbamoyl tetrahydropyridine derivatives” (Taisho Pharmaceutical Co., Ltd., priority 1999, dated 2005)

Biological target: T1, CRF receptor (Rattus norvegicus, UniProt P35353)
T1 construct: The frontal cortex of rats was homogenized in a 50 mM Tris hydrochloric acid buffer; from tissue; host or cells: rat frontal cortex membranes
T1 sequence (P35353 24-415): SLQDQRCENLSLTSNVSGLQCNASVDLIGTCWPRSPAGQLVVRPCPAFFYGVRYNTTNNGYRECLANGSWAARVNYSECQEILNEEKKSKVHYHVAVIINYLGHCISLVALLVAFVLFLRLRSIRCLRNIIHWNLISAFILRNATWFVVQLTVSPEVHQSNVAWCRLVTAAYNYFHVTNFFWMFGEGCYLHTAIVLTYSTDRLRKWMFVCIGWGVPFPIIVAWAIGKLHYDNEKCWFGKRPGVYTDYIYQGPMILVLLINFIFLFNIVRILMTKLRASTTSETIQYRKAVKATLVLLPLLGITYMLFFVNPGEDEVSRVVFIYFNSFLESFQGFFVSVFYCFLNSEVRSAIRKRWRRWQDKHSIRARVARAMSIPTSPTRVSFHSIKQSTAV
Test: CRF receptor binding experiment (125I-CRF, rat frontal cortex membranes)
Conditions: frontal cortex membranes of rats 0.3 mg protein/ml; 125I-CRF 0.2 nM; 2 hours at 25° C.; read-out: IC50 (concentration of the test agent for controlling 50% of the binding of 125I-CRF)
Experimental: Experimental Example [CRF receptor binding experiment]
As a receptor preparation, the frontal cortex membranes of rats were employed.
As a ^125I labeled ligand, ^125I-CRF was employed.
The binding reaction employing a ^125I labeled ligand was carried out in the following method as described in The Journal of Neuroscience, 7, 88 (1987).
Preparation of the receptor membrane preparations: The frontal cortex of rats was homogenized in a 50 mM Tris hydrochloric acid buffer (pH 7.0) containing 10 mM MgCl2 and 2 mM EDTA, and subsequently, the homogenized mixture was centrifuged at 48,000×g. The precipitate was washed once with the Tris hydrochloric acid buffer. The precipitate was suspended in a 50 mM tris hydrochloric acid buffer (pH 7.0) containing 10 mM MgCl2, 2 mM EDTA, 0.1% bovine serum albumin, and 100 kalliklein unit/ml aprotinin, to produce a membrane preparation.
CRF receptor binding experiment: The membrane preparation (0.3 mg protein/ml), ^125I-CRF (0.2 nM), and a test agent were reacted for 2 hours at 25° C. […] After completion of the washing, the radioactivity of the filter paper was measured by a gamma counter.
The binding quantity obtained when the reaction was carried out in the presence of 1 μM CRF was determined as nonspecific binding of ^125I-CRF, while the difference between the total binding and the nonspecific binding was determined as a specific binding. […]

CSc1cc(C(C)C)ccc1-n1cc(C)c2c(N3CC=C(C(N)=O)CC3)nc(C)nc21 [Com. No. 07, 4-(4-carbamoyl-1,2,3,6-tetrahydropyridin-1-yl)-2,5-dimethyl-7-(4-isopropyl-2-methylthiophenyl)-7H-pyrrolo[2,3-d]pyrimidine]
IC50: ≤ 100 nM
